{"source": "paper PMC10961089", "about": "“Epidermal growth factor receptor inhibition potentiates chemotherapeutics‐mediated sensitization of metastatic breast cancer stem cells” (Cancer Reports, 2024)", "key": {"MDA‐MB‐468 [1]": {"system": "MDA‐MB‐468", "test": "Cell migration (chemotaxis), Boyden-Chamber assay", "assay_type": "cell-based, human", "details": "Doxorubicin 0.01 μM + compound 5 μM (PD153035 10 μM) vs 10% FBS and Doxorubicin alone", "method": "(§1) TNBC cell lines—MDA‐MB‐231, MDA‐MB‐468, and the sorted CD24^+‐breast cancer cells, and CD24^−/CD44^+‐breast CSC populations from MDA‐MB‐231 [6] were seeded at a density of 1 × 10^6 cells/well to evaluate their migratory potential by Boyden‐Chamber assay. […] At the end of the treatment period, the cells were plated at a density of 5 × 10^3 cells/well in the upper chamber of the Boyden chamber assembly and 10% FBS in the lower chamber was used as a chemoattractant. Separately, the cells in the upper chamber were treated with Doxorubicin (0.01–0.1 μM) alone or with the potential EGFR inhibitors (compounds—1c, 1e, 1g, 1h, 1j, and 1k (5 μM) based on their low IC50 values) or a commercial EGFR inhibitor, PD153035 (10 μM) and incubated for 4 h followed by fixation and staining as described previously.[28], [29]"}, "MDA‐MB‐231 [2]": {"system": "MDA‐MB‐231", "test": "Cell migration (chemotaxis), Boyden-Chamber assay", "assay_type": "cell-based, human", "details": "Doxorubicin 0.01 μM + compound 5 μM (PD153035 10 μM) vs 10% FBS and Doxorubicin alone", "method": "as §1"}, "[3]": {"system": "human CD44, ALDH1A1, Fibronectin, N‐Cadherin, Vimentin in tumor tissue", "test": "qRT-PCR of human CSC/EMT genes in tumor tissues", "assay_type": "in vivo, C57BL/6 mice", "details": "with doxorubicin low dose vs low dose doxorubicin alone", "method": "Additionally, total RNA was isolated from tumor tissues and utilized for cDNA synthesis (Thermo Scientific, Massachusetts, USA). To determine the transcriptional regulation of expression of EMT genes in tumor tissues subjected to various treatment regimes, quantitative real‐time PCR (qRT‐PCR) analysis was performed as described previously[28] using human gene‐specific forward and reverse primers of EMT genes. Amplification of Eukaryotic 18S rRNA served as an internal control and was utilized to calculate the fold change in expression.[29]\n(§2) Animal studies have been carried out with the prior approval of the Institutional Animal Ethics Committee (IICT/IAEC/025/2023). C57BL/6 female mice of age 6–8 weeks (N = 35) were initially immunosuppressed with cyclophosphamide (50 mg/kg of body weight, i.p) on alternate days for 2 weeks. For generating a preclinical orthotopic xenograft tumor model, 2 × 10^6 GFP expressing sorted stable CD24^+‐breast cancer cells and CD24^−/CD44^+‐breast CSCs were orthotopically xeno‐transplanted subcutaneously at the fourth mammary fat pad of immune‐suppressed mice (n = 5/group). Subsequently, intratumoral administration of Doxorubicin at a low dose (2.5 mg/kg of body weight), high dose (10 mg/kg of body weight), and/or combinatorial treatment of the potent EGFR inhibitor, compound 1e (50 mg/kg of body weight) or the commercial EGFR inhibitor, PD153035 (50 mg/kg of body weight) with a low dose of doxorubicin was performed to the palpable tumors of breast CSCs at day‐3 post‐transplantation."}, "MDA‐MB‐231 [4]": {"system": "MDA‐MB‐231", "set-up": "method as in PMID 28398698", "details": "unit not printed in the sentence (Table 1 in μM); read-out: IC50 against MDA‐MB‐231; cited from earlier work"}, "MDA‐MB‐468 [5]": {"system": "MDA‐MB‐468", "set-up": "method as in PMID 28398698", "details": "unit not printed in the sentence (Table 1 in μM); read-out: IC50 against MDA‐MB‐468; cited from earlier work"}, "[6]": {"system": "Bax and Cytochrome‐C in MDA‐MB‐231 cells", "test": "Gene expression of apoptotic genes, semi-quantitative RT-PCR", "assay_type": "cell-based, human", "details": "MDA-MB-231, doxorubicin + compound 5 μM, 24 h", "method": "Briefly, the cells were incubated at 37°C with serum starvation followed by culturing as described above. […] Briefly, the template RNA (1 μg) was utilized for cDNA synthesis using a First‐strand cDNA synthesis kit (Thermo Scientific, USA) according to the manufacturer's protocol. Thermal cycler (Mastercycler® nexus, Eppendorf) was used for the amplification of the expression of apoptotic genes—Bax, Bcl2, Cytochrome‐C, and target gene EGFR with the help of Dream Taq DNA Polymerase PCR Master Mix (Thermo Scientific, USA) along with human gene‐specific forward and reverse primer sequences of the apoptotic genes and EGFR (Table ST1). The expression of the target genes was normalized to the Eukaryotic 18S rRNA."}, "[7]": {"system": "CD44, p‐EGFR, p‐JNK, p‐p38 in tumor tissue", "test": "Immunohistochemical analysis of tumor tissue (colocalization with GFP, Pearson's correlation coefficient)", "assay_type": "in vivo, C57BL/6 mice", "method": "as §2\nImmunohistochemical analysis was performed by immunostaining the tissue serial sections with primary antibodies against GFP, CD44, p‐EGFR, p‐JNK, and p‐p38 (CST, USA) followed by alexafluor‐488/555 conjugated secondary antibodies (R&D systems, USA) and mounting medium containing DAPI.[28], [29] Images were captured using a confocal microscope (Olympus FV10i, Tokyo, Japan). Pearson's correlation coefficient was utilized to determine the co‐localization of GFP/CD44, GFP/p‐EGFR, GFP/p‐JNK, and GFP/p‐p38 (Table. ST3)."}, "[8]": {"system": "CD24^−/CD44^+‐breast CSCs xenotransplanted tumors", "test": "Preclinical orthotopic xenograft murine tumor model (tumor size, weight, H&E histology)", "assay_type": "in vivo, C57BL/6 mice", "method": "as §2\nEuthanization of mice was performed on day 14 post‐transplantation and tumor tissues were collected for histological and immunohistochemical analysis. Histological differences in tumor tissues were evaluated using hematoxylin and eosin staining (H&E).[28], [30]"}}}
{"smiles": "COc1cc2ncnc(Nc3cccc(Br)c3)c2cc1OC", "note": "[PD153035, reference compound]", "values": [{"measurement": "migratory potential", "setting": "MDA‐MB‐468 [1]", "result": "significant decrease"}, {"measurement": "migratory potential", "setting": "MDA‐MB‐231 [2]", "result": "significant decrease"}, {"measurement": "expression level of human CD44 in tumor tissue", "setting": "[3]", "result": "significantly decreased"}, {"measurement": "IC50", "setting": "MDA‐MB‐231 [4]", "result": 3.2, "unit": "µM"}, {"measurement": "IC50", "setting": "MDA‐MB‐468 [5]", "result": 15.4, "unit": "µM"}, {"measurement": "expression of pro‐apoptotic genes Bax and Cytochrome‐C", "setting": "[6]", "result": "marked increase"}, {"measurement": "colocalization of GFP/p‐EGFR", "setting": "[7]; with doxorubicin low dose, CSC xenograft tumor tissue", "result": "decreased significantly"}, {"measurement": "activation of apoptotic signaling mediators (GFP/p‐JNK, GFP/p‐p38 colocalization)", "setting": "[7]; with low dose doxorubicin, comparable with high dose doxorubicin alone", "result": "increased activation"}, {"measurement": "colocalization of GFP and CD44 (Pearson's correlation coefficient)", "setting": "[7]; with low dose of doxorubicin, CSC xenograft tumor tissue", "result": "comparable to the high dose of doxorubicin treated group"}, {"measurement": "tumorigenicity (H&E histology)", "setting": "[8]; 50 mg/kg + low dose doxorubicin 2.5 mg/kg, CSC xenograft", "result": "significant decrease"}, {"measurement": "histopathological finding in tumor tissue", "setting": "[8]; 50 mg/kg + low dose doxorubicin 2.5 mg/kg, CSC xenograft, day 14", "result": "neoplastic mass in the dermal region which was completely necrosed and replaced with fibrous tissue"}, {"measurement": "tumor size", "setting": "[8]; intratumoral, 50 mg/kg + doxorubicin low dose 2.5 mg/kg vs low dose doxorubicin alone, CD24^−/CD44^+ CSC xenograft", "result": "significantly decreased"}]}
